The record followed here is patent publication EP4806898A1, “HETEROARYL DERIVATIVE COMPOUND AND USE THEREOF” (Voronoi Inc., priority 2023, dated 2025).

In general, ΔTm refers to the change in melting temperature against a reference sample. Broadly, the GI50 is the concentration giving 50% growth inhibition.

Molecules are shown by their SMILES.

The target in experiment [1] is T1, recombinant USP1 protein (Homo sapiens, UniProt O94782, DEL125-138/DEL229-408/DEL608-737).
T1 sequence (O94782 with tags, fused parts or gaps DEL125-138/DEL229-408/DEL608-737): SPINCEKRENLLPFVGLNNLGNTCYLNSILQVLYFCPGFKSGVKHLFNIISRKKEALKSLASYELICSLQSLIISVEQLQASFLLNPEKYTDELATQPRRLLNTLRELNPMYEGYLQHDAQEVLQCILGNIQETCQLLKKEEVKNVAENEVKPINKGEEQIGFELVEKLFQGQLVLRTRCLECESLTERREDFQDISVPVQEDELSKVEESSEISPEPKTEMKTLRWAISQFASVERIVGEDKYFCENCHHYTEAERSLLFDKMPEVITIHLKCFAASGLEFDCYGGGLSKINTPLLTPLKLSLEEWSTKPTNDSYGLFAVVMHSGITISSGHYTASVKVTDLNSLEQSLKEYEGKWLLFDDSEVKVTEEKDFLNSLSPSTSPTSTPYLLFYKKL
The experiment is described as follows: Binding affinity to recombinant USP1 protein by differential scanning fluorimetry. The note with it: compound 100 µM; 0.03 mg/mL USP1 (Δ1-66, Δ125-138, Δ229-408, Δ608-737); Tm with compound minus Tm with DMSO; read-out: ΔTm (°C). The gist of the method: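 Thermal shift readout: ΔTm is the compound-well melting temperature less the DMSO-well value, measured by real-time PCR. Compounds tested at 100 µM final against 0.03 mg/mL truncated USP1 (Δ1-66, Δ125-138, Δ229-408, Δ608-737) in pH 8.0 Tris buffer containing 150 mM NaCl, 2% glycerol, 1 mM DTT.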
Background: In DSF a fluorescence change marks the thermal transition of the protein.

In experiment [2] the test system is UWB1.289 cells. Briefly: Cell proliferation inhibitory activity in BRCA1/2-mutant or HRD-positive cells (Cell Titer-Glo). It counts as cell-based. The note with it: UWB1289; UWB1.289 cells, 144 hours after compound treatment, Cell Titer-Glo, 1.5 nM to 10 µM; read-out: GI50 UWB1.289 BRCA1 mut. The gist of the method: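 GI50 from CellTiter-Glo luminescence after 144 h compound exposure at 37 °C. Cells seeded at 1,000 per well in MEBM/RPMI1640 mix 16–24 h beforehand; […] from 10 µM down to 1.5 nM final (3-fold steps).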

`COc1ncnc(C2CC2)c1-c1ncc2cc(C(=O)NC(C)(C)CO)n(Cc3ccc(-c4nc(C(F)(F)F)cn4C(C)C)cc3)c2n1` [Example 156, 2-(4-cyclopropyl-6-methoxypyrimidin-5-yl)-N-(1-hydroxy-2-methylpropan-2-yl)-7-(4-(1-isopropyl-4-(trifluoromethyl)-1H-imidazol-2-yl)benzyl)-7H-pyrrolo[2,3-d]pyrimidine-6-carboxamide]: the ΔTm at 100 µM in experiment [1] was greater than 5 °C. Further, in experiment [2], the GI50 was less than 100 nM.

`COc1ncnc(C2CC2)c1-c1ncc2cc(C(=O)NCCO)n(Cc3ccc(-c4nc(C(F)(F)F)cn4C(C)C)cc3)c2n1` [Example 157, 2-(4-cyclopropyl-6-methoxypyrimidin-5-yl)-N-(2-hydroxyethyl)-7-(4-(1-isopropyl-4-(trifluoromethyl)-1H-imidazol-2-yl)benzyl)-7H-pyrrolo[2,3-d]pyrimidine-6-carboxamide]: in experiment [1], the shift in melting temperature (ΔTm) at 100 µM is greater than 5 °C. In experiment [2], the GI50 is less than 100 nM.

As to `COc1ncnc(C2CC2)c1-c1ncc2cc(C(=O)NC3CCC(N(C)C)CC3)n(Cc3ccc(-c4nc(C(F)(F)F)cn4C(C)C)cc3)c2n1` (stereo not drawn) [Example 158, 2-(4-cyclopropyl-6-methoxypyrimidin-5-yl)-N-(4-(dimethylamino)cyclohexyl)-7-(4-(1-isopropyl-4-(trifluoromethyl)-1H-imidazol-2-yl)benzyl)-7H-pyrrolo[2,3-d]pyrimidine-6-carboxamide], in experiment [1], the shift in melting temperature (ΔTm) at 100 µM is greater than 5 °C. Also, the 50% growth inhibitory concentration (GI50) in experiment [2] is less than 100 nM.

On to `COc1ncnc(C2CC2)c1-c1ncc2cc(C(=O)N[C@@H]3CCN(C)C[C@@H]3F)n(Cc3ccc(-c4nc(C(F)(F)F)cn4C)cc3)c2n1` [Example 161, 2-(4-cyclopropyl-6-methoxypyrimidin-5-yl)-N-((3S,4R)-3-fluoro-1-methylpiperidin-4-yl)-7-(4-(1-methyl-4-(trifluoromethyl)-1H-imidazol-2-yl)benzyl)-7H-pyrrolo[2,3-d]pyrimidine-6-carboxamide], for which the ΔTm at 100 µM in experiment [1] is greater than 5 °C. Moreover, the GI50 in experiment [2] was less than 100 nM.

Consider `COc1ncnc(C2CC2)c1-c1ncc2cc(C(=O)N[C@H]3CCN(C)C[C@H]3F)n(Cc3ccc(-c4nc(C(F)(F)F)cn4C)cc3)c2n1` [Example 162, 2-(4-cyclopropyl-6-methoxypyrimidin-5-yl)-N-((3R, 4S) -3-fluoro-1-methylpiperidin-4-yl)-7-(4-(1-methyl-4-(trifluoromethyl)-1H-imidazol-2-yl)benzyl)-7H-pyrrolo[2,3-d]pyrimidine-6-carboxamide], for which the shift in melting temperature (ΔTm) at 100 µM in experiment [1] is greater than 5 °C. Further, the GI50 in experiment [2] is less than 100 nM.

On to `COc1ncnc(C2CC2)c1-c1ncc2cc(C(=O)NC[C@@H](C)O)n(Cc3ccc(-c4nc(C(F)(F)F)cn4C)cc3)c2n1` [Example 163, (R)-2-(4-cyclopropyl-6-methoxypyrimidin-5-yl)-N-(2-hydroxypropyl) -7-(4-(1-methyl-4-(trifluoromethyl)-1H-imidazol-2-yl)benzyl)-7H-pyrrolo[2,3-d]pyrimidine-6-carboxamide], for which the shift in melting temperature (ΔTm) at 100 µM in experiment [1] is greater than 5 °C. In addition, in experiment [2], the GI50 is less than 100 nM.

In the case of `COc1ncnc(C2CC2)c1-c1ncc2cc(C(=O)NC[C@H](C)O)n(Cc3ccc(-c4nc(C(F)(F)F)cn4C)cc3)c2n1` [Example 164, (S)-2-(4-cyclopropyl-6-methoxypyrimidin-5-yl)-N-(2-hydroxypropyl) -7-(4-(1-methyl-4-(trifluoromethyl)-1H-imidazol-2-yl)benzyl)-7H-pyrrolo[2,3-d]pyrimidine-6-carboxamide], the thermal shift (ΔTm) at 100 µM in experiment [1] is greater than 5 °C. The GI50 in experiment [2] was less than 100 nM.

Regarding `COc1ncnc(C2CC2)c1-c1ncc2cc(C(=O)N[C@@H]3CCN(C)C[C@H]3F)n(Cc3ccc(-c4nc(C(F)(F)F)cn4C)cc3)c2n1` [Example 165, 2-(4-cyclopropyl-6-methoxypyrimidin-5-yl)-N-((3R,4R)-3-fluoro-1-methylpiperidin-4-yl)-7-(4-(1-methyl-4-(trifluoromethyl)-1H-imidazol-2-yl)benzyl)-7H-pyrrolo[2,3-d]pyrimidine-6-carboxamide], the shift in melting temperature (ΔTm) at 100 µM in experiment [1] was greater than 5 °C. Moreover, the GI50 in experiment [2] was less than 100 nM.

For the molecule `COc1ncnc(C2CC2)c1-c1ncc2cc(C(=O)N[C@@H](C)CO)n(Cc3ccc(-c4nc(C(F)(F)F)cn4C)cc3)c2n1` [Example 166, (S)-2-(4-cyclopropyl-6-methoxypyrimidin-5-yl)-N-(1-hydroxypropan-2-yl)-7-(4-(1-methyl-4-(trifluoromethyl)-1H-imidazol-2-yl)benzyl)-7H-pyrrolo[2,3-d]pyrimidine-6-carboxamide], the ΔTm at 100 µM in experiment [1] is greater than 5 °C. Also, the concentration for 50% growth inhibition (GI50) in experiment [2] was less than 100 nM.

Turning to `COc1ncnc(C2CC2)c1-c1ncc2cc(C(=O)N[C@H]3CCN(C)C[C@@H]3F)n(Cc3ccc(-c4nc(C(F)(F)F)cn4C)cc3)c2n1` [Example 167, 2-(4-cyclopropyl-6-methoxypyrimidin-5-yl)-N-((3S,4S)-3-fluoro-1-methylpiperidin-4-yl)-7-(4-(1-methyl-4-(trifluoromethyl)-1H-imidazol-2-yl)benzyl)-7H-pyrrolo[2,3-d]pyrimidine-6-carboxamide], the ΔTm at 100 µM in experiment [1] was greater than 5 °C. For the same molecule, the 50% growth inhibitory concentration (GI50) in experiment [2] is less than 100 nM.

`COc1ncnc(C2CC2)c1-c1ncc2cc(C(=O)N[C@@H]3CCC[C@H]3N(C)C)n(Cc3ccc(-c4nc(C(F)(F)F)cn4C)cc3)c2n1` [Example 168, 2-(4-cyclopropyl-6-methoxypyrimidin-5-yl)-N-((1R,2R)-2-(dimethylamino)cyclopentyl)-7-(4-(1-methyl-4-(trifluoromethyl)-1H-imidazol-2-yl)benzyl)-7H-pyrrolo[2,3-d]pyrimidine-6-carboxamide]: the shift in melting temperature (ΔTm) at 100 µM in experiment [1] was greater than 5 °C. In experiment [2], the GI50 was less than 100 nM.

Consider `COc1ncnc(C2CC2)c1-c1ncc2cc(C(=O)N[C@@H]3CCN(C)C3)n(Cc3ccc(-c4nc(C(F)(F)F)cn4C)cc3)c2n1` [Example 169, (R) -2-(4-cyclopropyl-6-methoxypyrimidin-5-yl)-7-(4-(1-methyl-4-(trifluoromethyl)-1H-imidazol-2-yl)benzyl)-N-(1-methylpyrrolidin-3-yl)-7H-pyrrolo[2,3-d]pyrimidine-6-carboxamide], for which the ΔTm at 100 µM in experiment [1] was greater than 5 °C. Moreover, the GI50 in experiment [2] is less than 100 nM.

`COc1ncnc(C2CC2)c1-c1ncc2cc(C(=O)N3CCN(C)CC3)n(Cc3ccc(-c4nc(C(F)(F)F)cn4C)cc3)c2n1` [Example 170, (2-(4-cyclopropyl-6-methoxypyrimid in-5-yl)-7-(4-(1-methyl-4-(trifluoromethyl)-1H-imidazol-2-yl)benzyl) -7H-pyrrolo[2,3-d]pyrimidin-6-yl) (4-methylpiperazi n-1-yl)methanone]: the ΔTm at 100 µM in experiment [1] is greater than 5 °C. Also, in experiment [2], the 50% growth inhibitory concentration (GI50) is 100 to 500 nM.

As to `COc1ncnc(C2CC2)c1-c1ncc2cc(C(=O)NC3CN(C)C3)n(Cc3ccc(-c4nc(C(F)(F)F)cn4C)cc3)c2n1` [Example 171, 2-(4-cyclopropyl-6-methoxypyrimidin-5-yl)-7-(4-(1-methyl-4-(trifluoromethyl)-1H-imidazol-2-yl)benzyl)-N-(1-methylazetidin-3-yl)-7H-pyrrolo[2,3-d]pyrimidine-6-carboxamide], the shift in melting temperature (ΔTm) at 100 µM in experiment [1] is greater than 5 °C. For the same molecule, in experiment [2], the 50% growth inhibitory concentration (GI50) is less than 100 nM.

`COc1ncnc(C2CC2)c1-c1ncc2cc(C(=O)NC3CCC(N(C)C)CC3)n(Cc3ccc(-c4nc(C(F)(F)F)cn4C)cc3)c2n1` (stereo not drawn) [Example 172]: in experiment [1], the shift in melting temperature (ΔTm) at 100 µM was greater than 5 °C. The GI50 in experiment [2] was less than 100 nM.

With `COc1ncnc(C2CC2)c1-c1ncc2cc(C(=O)N[C@H]3CCN(C)C3)n(Cc3ccc(-c4nc(C(F)(F)F)cn4C)cc3)c2n1` [Example 173, (S)-2-(4-cyclopropyl-6-methoxypyrimidin-5-yl)-7-(4-(1-methyl-4-(trifluoromethyl)-1H-imidazol-2-yl)benzyl)-N-(1-methylpyrrolidin-3-yl)-7H-pyrrolo[2,3-d]pyrimidine-6-carboxamide], the thermal shift (ΔTm) at 100 µM in experiment [1] is greater than 5 °C. In addition, the 50% growth inhibitory concentration (GI50) in experiment [2] is less than 100 nM.

In the case of `COc1ncnc(C2CC2)c1-c1ncc2cc(C(=O)N[C@H]3CCN(C)C3)n(Cc3ccc(-c4nc(C(F)(F)F)cn4C(C)C)cc3)c2n1` [Example 174, (S)-2-(4-cyclopropyl-6-methoxypyrimidin-5-yl)-7-(4-(1-isopropyl-4-(trifluoromethyl)-1H-imidazol-2-yl)benzyl)-N-(1-methylpyrrolidin-3-yl)-7H-pyrrolo[2,3-d]pyrimidine-6-carboxamide], in experiment [1], the ΔTm at 100 µM is greater than 5 °C. In experiment [2], the GI50 is less than 100 nM.

Take `COc1ncnc(C2CC2)c1-c1ncc2cc(C(=O)N[C@@H]3CCN(C)C3)n(Cc3ccc(-c4nc(C(F)(F)F)cn4C(C)C)cc3)c2n1` [Example 175, (R)-2-(4-cyclopropyl-6-methoxypyrimidin-5-yl)-7-(4-(1-isopropyl-4-(trifluoromethyl)-1H-imidazol-2-yl)benzyl)-N-(1-methylpyrrolidin-3-yl)-7H-pyrrolo[2,3-d]pyrimidine-6-carboxamide]: the thermal shift (ΔTm) at 100 µM in experiment [1] was greater than 5 °C. In addition, the GI50 in experiment [2] is less than 100 nM.
